Assay results published in PubChem BioAssay AID1963442 (Molecular Pharmacology Branch, DTP, NCI, 2024).

System: MPNST complex spheroid with HUVEC/MSC, growth, % test/control
Assay: Anticancer human tumor MPNST cell line growth inhibition [Asc];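 also: compounds left on spheroids for seven days before reading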
Settings: for IC50: curve of first compound; for viability, T/C: stronger effect = lower value; active = viability on the fitted dose curve at most 10% of control; inactive = the rest
Procedure, shortened: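 Complex spheroids combining tumor cells with HUVEC endothelial cells and human MSCs, at 37 degrees C, 5% CO2; agents tested alone or combined, half-log dilutions from at or near clinical Cmax, or 10 microM if Cmax unknown.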

[1] = second compound 0.1 µM, first compound 0.0316 µM
[2] = second compound 0.1 µM, first compound 0.1 µM
[3] = second compound 0.316 µM, first compound 0.0316 µM
[4] = second compound 0.316 µM, first compound 0.1 µM
[5] = second compound 1 µM, first compound 0.0316 µM
[6] = second compound 1 µM, first compound 0.1 µM
[7] = second compound 3.16 µM, first compound 0.0316 µM
[8] = second compound 3.16 µM, first compound 0.1 µM
[9] = second compound 10 µM, first compound 0.0316 µM
[10] = second compound 10 µM, first compound 0.1 µM

Cc1nc(N2CCC3(CC2)COC(C)C3N)c(CO)nc1Sc1ccnc(N)c1Cl (configuration not stated) + CNC(C)C(=O)NC1CN(S(=O)(=O)c2cccc(S(=O)(=O)N3CCC4CCC(C(=O)NC(c5ccccc5)c5ccccc5)N4C(=O)C(NC(=O)C(C)NC)C3)c2)CCC2CCC(C(=O)NC(c3ccccc3)c3ccccc3)N2C1=O
inactive: viability, T/C (second compound 0.00316 µM, first compound 0.00949 µM) 90.5% | viability, T/C (second compound 0.00316 µM, first compound 0.03 µM) 56.4% | viability, T/C (second compound 0.00316 µM, first compound 0.0949 µM) 57% | viability, T/C (second compound 0.00316 µM, first compound 0.3 µM) 41.5% | viability, T/C (second compound 0.00316 µM, first compound 0.949 µM) 62.1% | viability, T/C (second compound 0.00316 µM, first compound 3 µM) 30.6% | viability, T/C (second compound 0.01 µM, first compound 0.00949 µM) 103% | viability, T/C (second compound 0.01 µM, first compound 0.03 µM) 54% | viability, T/C (second compound 0.01 µM, first compound 0.0949 µM) 60.7% | viability, T/C (second compound 0.01 µM, first compound 0.3 µM) 51.6% | viability, T/C (second compound 0.01 µM, first compound 0.949 µM) 39.5% | viability, T/C (second compound 0.01 µM, first compound 3 µM) 25% | viability, T/C (second compound 0.0316 µM, first compound 0.00949 µM) 114% | viability, T/C (second compound 0.0316 µM, first compound 0.03 µM) 59.2% | viability, T/C (second compound 0.0316 µM, first compound 0.0949 µM) 65.9% | viability, T/C (second compound 0.0316 µM, first compound 0.3 µM) 40.1% | viability, T/C (second compound 0.0316 µM, first compound 0.949 µM) 42.8% | viability, T/C (second compound 0.0316 µM, first compound 3 µM) 40% | viability, T/C (second compound 0.1 µM, first compound 0.00949 µM) 68.9% | viability, T/C (second compound 0.1 µM, first compound 0.03 µM) 66.1% | viability, T/C (second compound 0.1 µM, first compound 0.0949 µM) 52.5% | viability, T/C (second compound 0.1 µM, first compound 0.3 µM) 45.8% | viability, T/C (second compound 0.1 µM, first compound 0.949 µM) 32.6% | viability, T/C (second compound 0.1 µM, first compound 3 µM) 28.8% | viability, T/C (second compound 0.316 µM, first compound 0.00949 µM) 60.8% | viability, T/C (second compound 0.316 µM, first compound 0.03 µM) 80.8% | viability, T/C (second compound 0.316 µM, first compound 0.0949 µM) 60.3% | viability, T/C (second compound 0.316 µM, first compound 0.3 µM) 57.4% | viability, T/C (second compound 0.316 µM, first compound 0.949 µM) 47% | viability, T/C (second compound 0.316 µM, first compound 3 µM) 31.7% | viability, T/C (second compound 1 µM, first compound 0.00949 µM) 71.5% | viability, T/C (second compound 1 µM, first compound 0.03 µM) 67.8% | viability, T/C (second compound 1 µM, first compound 0.0949 µM) 49.9% | viability, T/C (second compound 1 µM, first compound 0.3 µM) 48.1% | viability, T/C (second compound 1 µM, first compound 0.949 µM) 52.9% | viability, T/C (second compound 1 µM, first compound 3 µM) 28.6%
125 nM: IC50 (second compound 0.01 µM)
300 nM: IC50 (second compound 1 µM)
119 nM: IC50 (second compound 0.0316 µM)
647 nM: IC50 (second compound 0.316 µM)
157 nM: IC50 (second compound 0.1 µM)
105 nM: IC50 (second compound 0.00316 µM)

Cn1ncnc1[C@H]1c2n[nH]c(=O)c3cc(F)cc(c23)N[C@@H]1c1ccc(F)cc1 + Cc1c(S(C)(=O)=O)c(-c2cc(F)cc(N3CCN(c4ccc(NS(=O)(=O)c5ccc(NC(CCN6CCC(C(=O)OCCCP(=O)(O)O)CC6)CSc6ccccc6)c(S(=O)(=O)C(F)(F)F)c5)cc4)CC3)c2)c(-c2ccc(Cl)cc2)n1C(C)C
> 100 nM: IC50 (second compound 0.1 µM) | IC50 (second compound 0.316 µM) | IC50 (second compound 1 µM) | IC50 (second compound 3.16 µM) | IC50 (second compound 10 µM)
inactive: viability, T/C (second compound 0.1 µM, first compound 0.000316 µM) 78.7% | viability, T/C (second compound 0.1 µM, first compound 0.001 µM) 77.9% | viability, T/C (second compound 0.1 µM, first compound 0.00316 µM) 72.1% | viability, T/C (second compound 0.1 µM, first compound 0.01 µM) 71.5% | viability, T/C [1] 77.2% | viability, T/C [2] 50.6% | viability, T/C (second compound 0.316 µM, first compound 0.000316 µM) 71.8% | viability, T/C (second compound 0.316 µM, first compound 0.001 µM) 74.6% | viability, T/C (second compound 0.316 µM, first compound 0.00316 µM) 80.4% | viability, T/C (second compound 0.316 µM, first compound 0.01 µM) 97.1% | viability, T/C [3] 66.9% | viability, T/C [4] 59.8% | viability, T/C (second compound 1 µM, first compound 0.000316 µM) 84.7% | viability, T/C (second compound 1 µM, first compound 0.001 µM) 78.4% | viability, T/C (second compound 1 µM, first compound 0.00316 µM) 93.8% | viability, T/C (second compound 1 µM, first compound 0.01 µM) 72.1% | viability, T/C [5] 55.9% | viability, T/C [6] 65.2% | viability, T/C (second compound 3.16 µM, first compound 0.000316 µM) 86.7% | viability, T/C (second compound 3.16 µM, first compound 0.001 µM) 75.8% | viability, T/C (second compound 3.16 µM, first compound 0.00316 µM) 72.6% | viability, T/C (second compound 3.16 µM, first compound 0.01 µM) 63.3% | viability, T/C [7] 61% | viability, T/C [8] 56% | viability, T/C (second compound 10 µM, first compound 0.000316 µM) 100% | viability, T/C (second compound 10 µM, first compound 0.001 µM) 84.8% | viability, T/C (second compound 10 µM, first compound 0.00316 µM) 66.1% | viability, T/C (second compound 10 µM, first compound 0.01 µM) 64.2% | viability, T/C [9] 60.2% | viability, T/C [10] 73.6%

O=C(c1cc(Cc2n[nH]c(=O)c3ccccc23)ccc1F)N1CCN(C(=O)C2CC2)CC1 + Cc1c(S(C)(=O)=O)c(-c2cc(F)cc(N3CCN(c4ccc(NS(=O)(=O)c5ccc(NC(CCN6CCC(C(=O)OCCCP(=O)(O)O)CC6)CSc6ccccc6)c(S(=O)(=O)C(F)(F)F)c5)cc4)CC3)c2)c(-c2ccc(Cl)cc2)n1C(C)C
inactive: viability, T/C [1] 81.9% | viability, T/C [2] 59.6% | viability, T/C (second compound 0.1 µM, first compound 0.316 µM) 68.3% | viability, T/C (second compound 0.1 µM, first compound 1 µM) 64.5% | viability, T/C (second compound 0.1 µM, first compound 3.16 µM) 81.1% | viability, T/C (second compound 0.1 µM, first compound 10 µM) 64.5% | viability, T/C [3] 70.9% | viability, T/C [4] 67.1% | viability, T/C (second compound 0.316 µM, first compound 0.316 µM) 56.8% | viability, T/C (second compound 0.316 µM, first compound 1 µM) 69.5% | viability, T/C (second compound 0.316 µM, first compound 3.16 µM) 60.8% | viability, T/C (second compound 0.316 µM, first compound 10 µM) 49.8% | viability, T/C [5] 58.5% | viability, T/C [6] 78.6% | viability, T/C (second compound 1 µM, first compound 0.316 µM) 65.6% | viability, T/C (second compound 1 µM, first compound 1 µM) 79.7% | viability, T/C (second compound 1 µM, first compound 3.16 µM) 72.6% | viability, T/C (second compound 1 µM, first compound 10 µM) 49.7% | viability, T/C [7] 101% | viability, T/C [8] 72.9% | viability, T/C (second compound 3.16 µM, first compound 0.316 µM) 77.1% | viability, T/C (second compound 3.16 µM, first compound 1 µM) 64% | viability, T/C (second compound 3.16 µM, first compound 3.16 µM) 58.8% | viability, T/C (second compound 3.16 µM, first compound 10 µM) 51.5% | viability, T/C [9] 75% | viability, T/C [10] 85.8% | viability, T/C (second compound 10 µM, first compound 0.316 µM) 76.9% | viability, T/C (second compound 10 µM, first compound 1 µM) 62.5% | viability, T/C (second compound 10 µM, first compound 3.16 µM) 68.9% | viability, T/C (second compound 10 µM, first compound 10 µM) 49%
9830 nM: IC50 (second compound 1 µM)
> 10000 nM: IC50 (second compound 0.1 µM) | IC50 (second compound 0.316 µM) | IC50 (second compound 3.16 µM) | IC50 (second compound 10 µM)
